# Source: PMC3566787, “Efficient synthesis of phenylene-ethynylene rods and their use as rigid spacers in divalent inhibitors” (Beilstein Journal of Organic Chemistry, 2013)
# pIC50: −log10 of the molar value.
# Target: T1, LecA (Pseudomonas aeruginosa, UniProt Q05097)
# T1 construct: FITC-labeled LecA
# Assay: ELISA-type competition assay on a glycochip: inhibition of FITC-labeled LecA binding to a galactoside-functionalized surface
# T1 sequence (Q05097 2-122): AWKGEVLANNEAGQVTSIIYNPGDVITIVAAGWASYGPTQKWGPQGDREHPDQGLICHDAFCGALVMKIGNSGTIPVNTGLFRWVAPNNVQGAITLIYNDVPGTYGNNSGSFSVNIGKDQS
smiles,measurement,value
"COCCOCCOc1cc(C#Cc2cc(OCCOCCOC)c(-c3cn(CCCO[C@@H]4O[C@H](CO)[C@H](O)[C@H](O)[C@H]4O)nn3)cc2OCCOCCOC)c(OCCOCCOC)cc1C#Cc1cc(OCCOCCOC)c(-c2cn(CCCO[C@@H]3O[C@H](CO)[C@H](O)[C@H](O)[C@H]3O)nn2)cc1OCCOCCOC [compound 22, divalent ligand 22]",pIC50,6.05
